Results published in patent US20250333699A1, “METHOD FOR PREPARATION OF CYTOTOXIC T LYMPHOCYTES WITH BROAD TUMOUR-SPECIFIC REACTIVITY AND CHARACTERISTICS OF EARLY DIFFERENTIATION CELLS” (priority 2021, published 2025).

System: MAGE antigens
Assay: Expression of MAGE antigens by RT-PCR (Q-PCR) in CD3/CD28-activated lymphocytes
Type: cell-based, human
Settings: 10 μM for 2 days in the presence of IL-2 (150 IU/ml); FIG. 3
Method: Expression of MAGE antigens was determined as follows. The frozen pellets of cells were thawed, and total RNA was isolated from lymphocytes using the NucleoSpin RNA Plus kit (Macherey-Nagel), and reverse transcribed using SuperScript™ IV VILO™ Master Mix with ezDNase™ Enzyme (Invitrogen) and random hexamers and oligo(dT24) primers. cDNA was amplified in a LightCycler Nano (Roche) using the FastStart Essential DNA Green Master mix (Roche) and previously described primers and conditions (Weinert et al., 2009), except primers for MAGE-A4, provided by RealTimePrimers.com. The data were normalized to GAPDH expression.
The cell suspension was transferred to a 50 ml tube, and the cell concentration was determined. At this stage the culture contains only activated lymphocytes, and upon counting in a Moxi cell counter appear as a single peak of cells with an average size of 10-11 μm. 2×10^7 cells (or all cells) were set for centrifugation. […]
5-Aza-CdR-treated cultures were harvested and centrifuged. […] After this, cells were counted, and 10×10^6 cells were mixed with 10×10^6 thawed lymphocytes, and after centrifugation, resuspended in 20 ml of lymphocyte medium and transferred to a T75 tissue culture flask, side position. […]

Nc1ncn([C@H]2C[C@H](O)[C@@H](CO)O2)c(=O)n1 [5-aza-CdR, 5-aza-2′-deoxycytidine]
expression of selected CT antigens of the MAGE family: Robust and consistent expression
